Results: ChEMBL document CHEMBL4602699, “Identification and Optimization of EphA2-Selective Bicycles for the Delivery of Cytotoxic Payloads” (J Med Chem, 2020)

Key:
[1] = human, plasma, 2 h, 2 µM
in vitro [2] = conditions: human, plasma
HT-1080 = assay: animal or person; conditions: Rattus norvegicus, HT-1080, iv, 336 h, read-out: MED
in vitro [3] = conditions: human, plasma; remark: listed apart in the source
in vitro [4] = conditions: mouse, plasma

| Fu [1] | fraction unbound at 2 h, 2 µM (in vitro [2]) | half-life at 2 µM (in vitro [3]) [h] | half-life at 2 µM (in vitro [4]) [h] | SMILES | minimal effective dose (HT-1080) [mg/kg] |
| --- | --- | --- | --- | --- | --- |
| Bld |  |  |  | CC(C)[C@H](NC(=O)[C@@H](CC(=O)O)NC(=O)[C@H](Cc1c[nH]cn1)NC(=O)CN(C)C(=O)CN(C)C(=O)CN(C)C(=O)CN(C)CC(=O)N(C)CC(=O)N(C)CC(=O)N(C)CC(=O)N(C)CC(=O)N(C)CC(=O)N(C)C(=O)CCN)C(=O)N1CCC[C@H]1C(=O)N[C@@H]1CSCc2cc3cc(c2)CSC[C@H](C(N)=O)NC(=O)[C@@H](CC(=O)O)NC(=O)[C@@H]2CCCN2C(=O)[C@H](CCCCNC(=N)N)NC(=O)[C@H](CC(N)=O)NC(=O)[C@H](C(C)(C)C)NC(=O)[C@@H]2CCCN2C(=O)[C@H](CSC3)NC(=O)[C@H](Cc2cccc3ccccc23)NC(=O)[C@H](Cc2ccccc2)NC(=O)C(C)(C)NC(=O)CNC(=O)[C@H](Cc2cccc3ccccc23)NC(=O)C(C)(C)NC1=O |  |
|  | 0.44 |  |  | COc1cc2cc(c1Cl)N(C)C(=O)C[C@@H](OC(=O)[C@@H](C)N(C)C(=O)CCSSCCCC(=O)NCCC(=O)N(C)C(=O)CN(C)C(=O)CN(C)C(=O)CN(C)C(=O)CN(C)C(=O)CN(C)C(=O)CN(C)CC(=O)N(C)CC(=O)N(C)CC(=O)N(C)CC(=O)N[C@@H](C)C(=O)N[C@@H](CCCNC(=N)N)C(=O)N[C@@H](CC(=O)O)C(=O)N[C@H]1CSCCC(=O)N3CN4CN(C3)C(=O)CCSC[C@H](NC(=O)[C@H](CC(C)C)NC(=O)[C@@H]3CCCN3C(=O)[C@H](CC(N)=O)NC(=O)[C@H](C(C)C)NC(=O)[C@H](CC(C)C)NC(=O)[C@@H]3CCCN3C1=O)C(=O)N[C@@H](CC(C)C)C(=O)N[C@@H](Cc1c[nH]cn1)C(=O)N1CCC[C@H]1C(=O)N[C@H](CC(=O)O)C(=O)N[C@@H](CC1CCc3ccccc31)C(=O)NC(CCCCNC(=N)N)C(=O)N[C@H](C(N)=O)CSCCC4=O)[C@@]1(C)O[C@@H]1[C@@H](C)[C@H]1C[C@](O)(NC(=O)O1)[C@@H](OC)/C=C/C=C(\C)C2 (some centres undefined) | 3 |
|  | 0.41 | > 55 | 33 | CC(C)C[C@@H]1NC(=O)[C@@H]2CSCCC(=O)N3CN(CN(C3)C(=O)CCSC[C@H](NC(=O)[C@H](CC(=O)O)NC(=O)[C@H](CCCNC(=N)N)NC(=O)[C@H](C)NC(=O)CN(C)C(=O)CN(C)C(=O)CN(C)C(=O)CN(C)CC(=O)N(C)CC(=O)N(C)CC(=O)N(C)CC(=O)N(C)CC(=O)N(C)CC(=O)N(C)C(=O)CCN)C(=O)N3CCC[C@H]3C(=O)N[C@@H](CC(C)C)C(=O)N[C@@H](C(C)C)C(=O)N[C@@H](CC(N)=O)C(=O)N3CCC[C@H]3C(=O)N[C@@H](CC(C)C)C(=O)N2)C(=O)CCSC[C@@H](C(N)=O)NC(=O)C(CCCCNC(=N)N)NC(=O)[C@H](CC2CCc3ccccc32)NC(=O)[C@@H](CC(=O)O)NC(=O)[C@@H]2CCCN2C(=O)[C@H](Cc2c[nH]cn2)NC1=O (some centres undefined) |  |
|  | 0.646 | 3.7 | 3.6 | CC(=O)N[C@@H](C)C(=O)N[C@@H](CCCNC(=N)N)C(=O)N[C@@H](CC(=O)O)C(=O)N[C@@H](CS)C(=O)N1CCC[C@H]1C(=O)N[C@@H](CC(C)C)C(=O)N[C@H](C(=O)N[C@@H](CC(N)=O)C(=O)N1CCC[C@H]1C(=O)N[C@@H](CC(C)C)C(=O)N[C@@H](CS)C(=O)N[C@@H](CC(C)C)C(=O)N[C@@H](Cc1cnc[nH]1)C(=O)N1CCC[C@H]1C(=O)NCC(=O)N[C@@H](Cc1c[nH]c2ccccc12)C(=O)N[C@H](C(=O)N[C@@H](CS)C(=O)O)[C@@H](C)O)C(C)C |  |
